According to paper PMC6154558, “Discovery and Biological Evaluation of a Series of Pyrrolo[2,3-b]pyrazines as Novel FGFR Inhibitors” (Molecules : A Journal of Synthetic Chemistry and Natural …, 2017):
Values joined by “and” are separate entries in the source; they are usually repeats but may differ in a detail not shown here. Identical values can stand only once.

Assays:
FGFR1 = target: T1, FGFR1 (Homo sapiens, UniProt P11362); assay: ELISA kinase assay, FGFR1; assay type: biochemical; conditions: for inhibition at 1 µM: 1 μM compound; for IC50: mean ± SD from two separate experiments; for inhibition at 0.01 µM: 0.01 μM compound
T1 construct: purchased Millipore
Description: (§1) The effects of compounds on the activities of indicated (FGFR1 and c-Met) kinases were determined using enzyme-linked immunosorbent assays (ELISAs) with purified recombinant proteins. Briefly, 20 μg/mL poly (Glu, Tyr)4:1 (Sigma, St. Louis, MO, USA) was pre-coated in 96-well plates as a substrate. A 50-μL aliquot of 10 μmol/L ATP solution diluted in kinase reaction buffer (50 mmol/L HEPES (pH 7.4), 50 mmol/L MgCl2, 0.5 mmol/L MnCl2, 0.2 mmol/L Na3VO4, and 1 mmol/L DTT) was added to each well; 1 μL of various concentrations of compounds diluted in 1% DMSO (v/v) (Sigma) were then added to each reaction well. DMSO (1%, v/v) was used as the negative control. The kinase reaction was initiated by the addition of purified tyrosine kinase proteins FGFR1 (Millipore, Darmstadt, Germany) or c-Met (Millipore) diluted in 49 μL of kinase reaction buffer. After incubation for 60 min at 37 °C, the plate was washed three times with phosphate-buffered saline (PBS) containing 0.1% Tween 20 (T-PBS). Anti-phosphotyrosine (PY99) antibody (Sanra Cruz, Dallas, USA) (100 μL; 1:500, diluted in 5 mg/mL bovine serum albumin (BSA) T-PBS) was then added. After a 30-min incubation at 37 °C, the plate was washed three times, and 100 μL horseradish peroxidase-conjugated goat anti-mouse IgG (Calbiochem, Shanghai, China) (1:2000, diluted in 5 mg/mL BSA T-PBS) was added. The plate was then incubated at 37°C for 30 min and washed 3 times. A 100-μL aliquot of a solution containing 0.03% H2O2 and 2 mg/mL o-phenylenediamine in 0.1 mol/L citrate buffer (pH 5.5) was added. The reaction was terminated by the addition of 50 μL of 2 mol/L H2SO4 as the color changed, and the plate was analyzed using a multi-well spectrophotometer (SpectraMAX 190, Molecular Devices, Palo Alto, CA, USA) at 490 nm. […] (1) where IR, A490 and A490control are the inhibition rate, the absorbance value of the tested compound at 490 nm and the absorbance value of the negative control compound at 490 nm, respectively. The IC50 values were calculated from the inhibition curves in two separate experiments.

c-Met = target: T2, c-Met (Homo sapiens, UniProt P08581); assay: ELISA kinase assay, c-Met; assay type: biochemical; conditions: for inhibition at 0.01 µM: 0.01 μM compound; for inhibition at 0.1 µM: 0.1 μM compound; for inhibition at 1 µM: 1 μM compound
T2 construct: purchased Millipore
Description: as §1

[1] = 10 μM compound, mean from two separate experiments

T2 sequence (P08581 25-1390): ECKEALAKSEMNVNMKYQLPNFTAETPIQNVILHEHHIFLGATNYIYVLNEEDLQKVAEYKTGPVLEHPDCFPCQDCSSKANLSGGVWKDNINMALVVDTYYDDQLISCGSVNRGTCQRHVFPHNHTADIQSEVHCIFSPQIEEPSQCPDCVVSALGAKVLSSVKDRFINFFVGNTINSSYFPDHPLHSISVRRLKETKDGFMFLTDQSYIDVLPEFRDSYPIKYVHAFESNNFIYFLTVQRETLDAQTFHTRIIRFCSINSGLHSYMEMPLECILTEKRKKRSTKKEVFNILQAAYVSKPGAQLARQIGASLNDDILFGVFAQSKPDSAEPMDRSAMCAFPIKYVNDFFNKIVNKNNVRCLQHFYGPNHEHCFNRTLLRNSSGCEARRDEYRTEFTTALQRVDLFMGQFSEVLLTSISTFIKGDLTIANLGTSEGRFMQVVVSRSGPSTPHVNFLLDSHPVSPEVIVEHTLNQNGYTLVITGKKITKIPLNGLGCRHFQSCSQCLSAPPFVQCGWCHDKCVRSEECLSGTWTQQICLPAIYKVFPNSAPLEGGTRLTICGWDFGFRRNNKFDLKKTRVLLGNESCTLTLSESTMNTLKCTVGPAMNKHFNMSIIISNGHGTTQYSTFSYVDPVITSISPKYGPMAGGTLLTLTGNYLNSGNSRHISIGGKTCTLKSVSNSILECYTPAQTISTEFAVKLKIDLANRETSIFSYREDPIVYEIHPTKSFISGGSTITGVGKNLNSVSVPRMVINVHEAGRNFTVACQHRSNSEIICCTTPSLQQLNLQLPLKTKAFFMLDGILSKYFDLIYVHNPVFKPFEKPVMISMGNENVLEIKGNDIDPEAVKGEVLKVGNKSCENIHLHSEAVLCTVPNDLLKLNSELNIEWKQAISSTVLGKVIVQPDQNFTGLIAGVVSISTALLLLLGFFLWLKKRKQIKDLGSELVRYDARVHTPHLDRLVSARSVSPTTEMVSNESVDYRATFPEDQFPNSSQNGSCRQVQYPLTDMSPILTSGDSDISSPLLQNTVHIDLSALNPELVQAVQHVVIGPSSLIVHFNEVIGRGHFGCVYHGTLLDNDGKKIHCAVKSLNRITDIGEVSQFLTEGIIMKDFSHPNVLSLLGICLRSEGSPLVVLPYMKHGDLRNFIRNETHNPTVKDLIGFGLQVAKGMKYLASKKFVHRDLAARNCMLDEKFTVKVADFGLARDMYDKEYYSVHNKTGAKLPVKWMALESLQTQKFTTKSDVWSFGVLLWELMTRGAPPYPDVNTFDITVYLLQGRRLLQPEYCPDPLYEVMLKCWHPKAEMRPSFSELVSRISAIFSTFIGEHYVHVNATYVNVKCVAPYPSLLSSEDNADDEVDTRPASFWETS
T1 sequence (P11362 22-822): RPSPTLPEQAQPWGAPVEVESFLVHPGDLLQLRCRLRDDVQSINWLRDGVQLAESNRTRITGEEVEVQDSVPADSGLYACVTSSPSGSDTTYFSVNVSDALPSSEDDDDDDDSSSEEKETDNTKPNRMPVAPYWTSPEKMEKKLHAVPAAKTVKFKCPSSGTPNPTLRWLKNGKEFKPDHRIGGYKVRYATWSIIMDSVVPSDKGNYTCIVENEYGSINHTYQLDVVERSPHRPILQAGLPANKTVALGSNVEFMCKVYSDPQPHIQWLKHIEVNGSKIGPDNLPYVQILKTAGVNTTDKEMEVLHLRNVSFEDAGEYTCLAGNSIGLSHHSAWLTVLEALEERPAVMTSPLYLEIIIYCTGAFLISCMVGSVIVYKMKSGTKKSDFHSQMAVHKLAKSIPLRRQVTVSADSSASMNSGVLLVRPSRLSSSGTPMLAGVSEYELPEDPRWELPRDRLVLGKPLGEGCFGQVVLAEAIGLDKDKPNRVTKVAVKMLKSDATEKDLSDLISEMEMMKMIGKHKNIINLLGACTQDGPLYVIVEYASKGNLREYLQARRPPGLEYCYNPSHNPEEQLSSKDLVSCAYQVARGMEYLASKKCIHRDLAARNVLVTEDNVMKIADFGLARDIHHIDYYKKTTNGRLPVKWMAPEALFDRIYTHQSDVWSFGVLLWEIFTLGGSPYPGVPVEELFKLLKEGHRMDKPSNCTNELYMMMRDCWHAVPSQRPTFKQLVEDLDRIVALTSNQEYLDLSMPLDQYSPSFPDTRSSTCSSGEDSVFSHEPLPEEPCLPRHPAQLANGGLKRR

inhibition at 1 µM (FGFR1)	inhibition at 10 µM (FGFR1; [1])	inhibition at 0.1 µM (FGFR1; 0.1 μM compound)	Compound	also measured
47.1%	87.8%		Cn1cc(-c2cnc3cnn(S(=O)(=O)c4ccccc4)c3c2)cn1 [Compound 4, 6-(1-Methyl-1H-pyrazol-4-yl)-1-(phenylsulfonyl)-1H-pyrazolo[4,3-b]pyridine]	
	46.1%		Cn1cc(-c2cnc3cnn(S(=O)(=O)Cc4ccccc4)c3c2)cn1 [Compound 5, 1-(Benzylsulfonyl)-6-(1-methyl-1H-pyrazol-4-yl)-1H-pyrazolo[4,3-b]pyridine]	
	53%		Cn1cc(-c2cnc3cnn(Cc4ccccc4)c3c2)cn1 [Compound 6, 1-Benzyl-6-(1-methyl-1H-pyrazol-4-yl)-1H-pyrazolo[4,3-b]pyridine]	
	55.9%		Cn1cc(-c2cnc3cnn(CCc4ccccc4)c3c2)cn1 [Compound 7, 6-(1-Methyl-1H-pyrazol-4-yl)-1-phenethyl-1H-pyrazolo[4,3-b]pyridine]	
31.6%	80.4%		Cn1cc(-c2cnc3ccn(S(=O)(=O)c4ccccc4)c3c2)cn1 [Compound 8, 6-(1-Methyl-1H-pyrazol-4-yl)-1-(phenylsulfonyl)-1H-pyrrolo[3,2-b]pyridine]	
	93.3%	46%	Cn1cc(-c2cnc3ccn(S(=O)(=O)c4ccccc4)c3n2)cn1 [Compound 9, 3-(1-Methyl-1H-pyrazol-4-yl)-5-(phenylsulfonyl)-5H-pyrrolo[2,3-b]pyrazine]	FGFR1 Inhibition (%) (FGFR1; 10 μM compound, mean from two separate experiments, 10 µM): 90.5%
15.4%	50%		Cc1ncc(-c2cnn(C)c2)cc1NS(=O)(=O)c1ccccc1 [Compound 10, N-(2-Methyl-5-(1-methyl-1H-pyrazol-4-yl)pyridin-3-yl)benzenesulfonamide]	
20.8%	34.7%	26.8%	Cn1cc(-c2cnc3ccn(S(=O)(=O)C4CCCC4)c3n2)cn1 [Compound 11, 5-(Cyclopentylsulfonyl)-3-(1-methyl-1H-pyrazol-4-yl)-5H-pyrrolo[2,3-b]pyrazine]	
24.1%	53.3%	29.4%	Cn1cc(-c2cnc3ccn(S(=O)(=O)C4CCCCC4)c3n2)cn1 [Compound 12, 5-(Cyclohexylsulfonyl)-3-(1-methyl-1H-pyrazol-4-yl)-5H-pyrrolo[2,3-b]pyrazine]	
32.6%	59.7%	40.3%	Cn1cc(-c2cnc3ccn(S(=O)(=O)c4ccccc4C#N)c3n2)cn1 [Compound 13, 2-((3-(1-Methyl-1H-pyrazol-4-yl)-5H-pyrrolo[2,3-b]pyrazin-5-yl)sulfonyl)benzonitrile]	
27.2%	45.2%	22%	Cn1cc(-c2cnc3ccn(S(=O)(=O)c4ccc(Cl)cc4)c3n2)cn1 [Compound 14, 5-((4-Chlorophenyl)sulfonyl)-3-(1-methyl-1H-pyrazol-4-yl)-5H-pyrrolo[2,3-b]pyrazine]	
31.2%	55.6%	23.6%	Cn1cc(-c2cnc3ccn(S(=O)(=O)c4ccc(F)cc4F)c3n2)cn1 [Compound 15, 5-((2,4-Difluorophenyl)sulfonyl)-3-(1-methyl-1H-pyrazol-4-yl)-5H-pyrrolo[2,3-b]pyrazine]	
34.8%	74.5%	13.6%	Cn1cc(-c2cnc3ccn(S(=O)(=O)c4ccc(Cl)c(Cl)c4)c3n2)cn1 [Compound 16, 5-((3,4-Dichlorophenyl)sulfonyl)-3-(1-methyl-1H-pyrazol-4-yl)-5H-pyrrolo[2,3-b]pyrazine]	
76.4%	92.1%	61.1%	Cn1cc(-c2cnc3ccn(S(=O)(=O)c4cccc([N+](=O)[O-])c4)c3n2)cn1 [Compound 17, 3-(1-Methyl-1H-pyrazol-4-yl)-5-((3-nitrophenyl)sulfonyl)-5H-pyrrolo[2,3-b]pyrazine]	inhibition at 0.01 µM (c-Met): -5.4%; inhibition at 0.1 µM (c-Met): -1.5%; inhibition at 1 µM (c-Met): 30.6%; IC50 (FGFR1): 85.9 ± 21.2 nM
12.8%	15.5%	17.4%	Cn1cc(-c2cnc3ccn(S(=O)(=O)c4ccc([N+](=O)[O-])cc4)c3n2)cn1 [Compound 18, 3-(1-Methyl-1H-pyrazol-4-yl)-5-((4-nitrophenyl)sulfonyl)-5H-pyrrolo[2,3-b]pyrazine]	
57.5%	82.2%	34.7%	Cn1cc(-c2cnc3ccn(S(=O)(=O)c4cccc(N)c4)c3n2)cn1 [Compound 19, 3-((3-(1-Methyl-1H-pyrazol-4-yl)-5H-pyrrolo[2,3-b]pyrazin-5-yl)sulfonyl)aniline]	
24.2%	42.4%	31.8%	Cn1cc(-c2cnc3ccn(S(=O)(=O)c4ccc(N)cc4)c3n2)cn1 [Compound 20, 4-((3-(1-Methyl-1H-pyrazol-4-yl)-5H-pyrrolo[2,3-b]pyrazin-5-yl)sulfonyl)aniline]	
50.9%	79%	44.7%	CC(=O)Nc1cccc(S(=O)(=O)n2ccc3ncc(-c4cnn(C)c4)nc32)c1 [Compound 21, N-(3-((3-(1-Methyl-1H-pyrazol-4-yl)-5H-pyrrolo[2,3-b]pyrazin-5-yl)sulfonyl)phenyl)acetamide]	
17.3%	38.7%	27.7%	CCC(=O)Nc1cccc(S(=O)(=O)n2ccc3ncc(-c4cnn(C)c4)nc32)c1 [Compound 22, N-(3-((3-(1-Methyl-1H-pyrazol-4-yl)-5H-pyrrolo[2,3-b]pyrazin-5-yl)sulfonyl)phenyl)propionamide]	
58.8%		< 40%	CC(=O)n1cc(-c2cnc3ccn(S(=O)(=O)c4cccc([N+](=O)[O-])c4)c3n2)cn1 [Compound 23, 1-(4-(5-((3-Nitrophenyl)sulfonyl)-5H-pyrrolo[2,3-b]pyrazin-3-yl)-1H-pyrazol-1-yl)ethan-1-one]	inhibition at 0.01 µM (FGFR1): 36.5%; FGFR1 Inhibition (%) (FGFR1; 0.1 μM compound, 0.1 µM): 37.8%
60.9%		< 40%	CCC(=O)n1cc(-c2cnc3ccn(S(=O)(=O)c4cccc([N+](=O)[O-])c4)c3n2)cn1 [Compound 24, 1-(4-(5-((3-Nitrophenyl)sulfonyl)-5H-pyrrolo[2,3-b]pyrazin-3-yl)-1H-pyrazol-1-yl)propan-1-one]	inhibition at 0.01 µM (FGFR1): 29.3%; FGFR1 Inhibition (%) (FGFR1; 0.1 μM compound, 0.1 µM): 30.2%
63.4%		55.7%	CC(=O)Cn1cc(-c2cnc3ccn(S(=O)(=O)c4cccc([N+](=O)[O-])c4)c3n2)cn1 [Compound 25, 1-(4-(5-((3-Nitrophenyl)sulfonyl)-5H-pyrrolo[2,3-b]pyrazin-3-yl)-1H-pyrazol-1-yl)propan-2-one]	inhibition at 0.01 µM (c-Met): 5.5%; inhibition at 0.1 µM (c-Met): 5%; inhibition at 1 µM (c-Met): 14.1%; inhibition at 0.01 µM (FGFR1): 32.8%; IC50 (FGFR1): 45 nM and 45.9 nM
57.9%		35.7%	CC(=O)c1ccc(-c2cnc3ccn(S(=O)(=O)c4cccc([N+](=O)[O-])c4)c3n2)cc1 [Compound 26, 1-(4-(5-((3-Nitrophenyl)sulfonyl)-5H-pyrrolo[2,3-b]pyrazin-3-yl)phenyl)ethan-1-one]	
75.5%		52.2%	O=[N+]([O-])c1cccc(S(=O)(=O)n2ccc3ncc(-c4ccc(CO)cc4)nc32)c1 [Compound 27, (4-(5-((3-Nitrophenyl)sulfonyl)-5H-pyrrolo[2,3-b]pyrazin-3-yl)phenyl)methanol]	inhibition at 0.01 µM (c-Met): 1.1%; inhibition at 0.1 µM (c-Met): 8.4%; inhibition at 1 µM (c-Met): 30.1%; IC50 (FGFR1): 113 nM and 114 nM
62.4%		34%	COc1cccc2cc(-c3cnc4ccn(S(=O)(=O)c5cccc([N+](=O)[O-])c5)c4n3)[nH]c12 [Compound 28, 3-(7-Methoxy-1H-indol-2-yl)-5-((3-nitrophenyl)sulfonyl)-5H-pyrrolo[2,3-b]pyrazine]	inhibition at 0.01 µM (FGFR1): 27.2%
